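The compound was tested at five concentrations on cells cultured in 96-well plates, with a 48-hour exposure period. At the GI50, growth is halved.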 Active and inactive are the calls of the source. Cut-off read from the data, not from the text of the source: active = GI50 up to about 1.1 µM and inactive = higher. Residues, ends and D or L forms follow the SMILES beside them.
Legend:
Test in all cases: DTP human tumour cell line panel, 48 h
MOLT-4 = system: MOLT-4
PC-3 = system: PC-3
NCI-H460 = system: NCI-H460
DU-145 = system: DU-145
M14 = system: M14
UO-31 = system: UO-31
UACC-62 = system: UACC-62
ACHN = system: ACHN
HCT-15 = system: HCT-15
T47D = system: T47D
HL-60 = system: HL-60
BT-549 = system: BT-549
HCT-116 = system: HCT-116
HCC 2998 = system: HCC 2998
OVCAR-8 = system: OVCAR-8
SW-620 = system: SW-620
SK-OV-3 = system: SK-OV-3
Malme-3M = system: Malme-3M
RXF 393 = system: RXF 393

Structure (SMILES)	GI50 (MOLT-4)	GI50 (PC-3)	GI50 (NCI-H460)	GI50 (DU-145)	GI50 (M14)	GI50 (UO-31)	GI50 (UACC-62)	GI50 (ACHN)	GI50 (HCT-15) [µM]	GI50 (T47D)	GI50 (HL-60)	GI50 (BT-549)	GI50 (HCT-116)	GI50 (HCC 2998)	GI50 (OVCAR-8)	GI50 (SW-620)	GI50 (SK-OV-3)	GI50 (Malme-3M)	GI50 (RXF 393)
COC(=O)c1c(C)cc(OC)c(C/C=C(\C)CCCc2coc(C=C(C)C)c2)c1OC	37.4 µM (inactive)	> 100 µM (inactive)	> 100 µM (inactive)	> 100 µM (inactive)	> 100 µM (inactive)	> 100 µM (inactive)	> 100 µM (inactive)	> 100 µM (inactive)	> 100	43 µM (inactive)	21.9 µM (inactive)	> 100 µM (inactive)	> 100 µM (inactive)	> 100 µM (inactive)	> 100 µM (inactive)	> 100 µM (inactive)	–	–	–
COc1cc([C@@H]2c3cc4c(cc3[C@@H](Nc3ccc(Cl)cc3C(=O)c3ccccc3)[C@H]3COC(=O)[C@H]23)OCO4)cc(OC)c1OC	0.384 µM (active)	0.342 µM (active)	0.277 µM (active)	0.428 µM (active)	0.414 µM (active)	1.19 µM (inactive)	0.401 µM (active)	0.592 µM (active)	0.308	> 100 µM (inactive)	0.297 µM (active)	0.457 µM (active)	0.291 µM (active)	0.205 µM (active)	0.359 µM (active)	0.369 µM (active)	0.641 µM (active)	0.396 µM (active)	–
Cc1nc(O)nc2nc3cc(Cl)cc(Cl)c3c(NC(C)(CO)CO)c12	> 100 µM (inactive)	> 100 µM (inactive)	> 100 µM (inactive)	29.2 µM (inactive)	> 100 µM (inactive)	91 µM (inactive)	72.3 µM (inactive)	50.5 µM (inactive)	> 100	> 100 µM (inactive)	–	35.6 µM (inactive)	34 µM (inactive)	> 100 µM (inactive)	75.2 µM (inactive)	> 100 µM (inactive)	26.8 µM (inactive)	> 100 µM (inactive)	27.8 µM (inactive)
CCC(C)C(NC(=O)C1CCCN1)C(=O)NC(C(=O)NCC(=O)NC(CC(N)=O)C(=O)NC(CC(C)C)C(=O)NC(CC(C)C)C(=O)NC(CCCCN)C(N)=O)C(C)C (configuration not stated) (H-PIVGNLLK-NH2; configuration not given here)	> 75 µM (inactive)	> 75 µM (inactive)	–	> 75 µM (inactive)	> 75 µM (inactive)	> 75 µM (inactive)	> 75 µM (inactive)	> 75 µM (inactive)	> 75	> 75 µM (inactive)	23 µM (inactive)	> 75 µM (inactive)	> 75 µM (inactive)	–	> 75 µM (inactive)	> 75 µM (inactive)	> 75 µM (inactive)	> 75 µM (inactive)	–
CCOC1OC(COC(=O)C(C)(C)C)C(O)CC1n1cc(C)c(=O)[nH]c1=O (configuration not stated)	–	> 100 µM (inactive)	> 100 µM (inactive)	> 100 µM (inactive)	> 100 µM (inactive)	> 100 µM (inactive)	> 100 µM (inactive)	> 100 µM (inactive)	> 100	> 100 µM (inactive)	–	> 100 µM (inactive)	> 100 µM (inactive)	> 100 µM (inactive)	> 100 µM (inactive)	> 100 µM (inactive)	–	> 100 µM (inactive)	> 100 µM (inactive)
O=c1n(-c2ccccc2)c(=O)n2n1C1Cc3ccccc3C12 (configuration not stated)	> 100 µM (inactive)	> 100 µM (inactive)	> 100 µM (inactive)	> 100 µM (inactive)	> 100 µM (inactive)	> 100 µM (inactive)	> 100 µM (inactive)	> 100 µM (inactive)	> 100	> 100 µM (inactive)	> 100 µM (inactive)	> 100 µM (inactive)	> 100 µM (inactive)	–	> 100 µM (inactive)	> 100 µM (inactive)	> 100 µM (inactive)	–	–
CCN(CC)CCNC(=O)c1cc2cc(NC(=O)c3cc4cc([N+](=O)[O-])ccc4[nH]3)ccc2[nH]1	13 µM (inactive)	> 39 µM (inactive)	2.92 µM (inactive)	14.2 µM (inactive)	57.8 µM (inactive)	> 40.5 µM (inactive)	32 µM (inactive)	35.1 µM (inactive)	> 100	18.4 µM (inactive)	–	> 60.8 µM (inactive)	2.85 µM (inactive)	11.2 µM (inactive)	2.99 µM (inactive)	6.11 µM (inactive)	25.9 µM (inactive)	–	> 43.9 µM (inactive)
CC(=O)N1c2ccccc2C23CCN4CC5=CCOC(O)C(C5CC42)C13 (configuration not stated)	> 100 µM (inactive)	> 100 µM (inactive)	> 100 µM (inactive)	> 100 µM (inactive)	> 100 µM (inactive)	> 100 µM (inactive)	> 100 µM (inactive)	> 100 µM (inactive)	> 100	> 100 µM (inactive)	> 100 µM (inactive)	> 100 µM (inactive)	> 100 µM (inactive)	> 100 µM (inactive)	> 100 µM (inactive)	> 100 µM (inactive)	> 100 µM (inactive)	> 100 µM (inactive)	–
OC(CCN1CCCCC1)(c1ccccc1)c1ccccc1 [PRIDINOL]	> 100 µM (inactive)	> 100 µM (inactive)	–	> 100 µM (inactive)	> 100 µM (inactive)	55.1 µM (inactive)	> 100 µM (inactive)	> 100 µM (inactive)	> 100	> 100 µM (inactive)	–	> 100 µM (inactive)	> 100 µM (inactive)	–	> 100 µM (inactive)	> 100 µM (inactive)	> 100 µM (inactive)	> 100 µM (inactive)	> 100 µM (inactive)
CCOC(=O)C#Cc1ccccc1	2.9 µM (inactive)	8.95 µM (inactive)	60 µM (inactive)	25.8 µM (inactive)	5.14 µM (inactive)	0.741 µM (active)	6.75 µM (inactive)	14.6 µM (inactive)	8.09	19.4 µM (inactive)	14.4 µM (inactive)	11.6 µM (inactive)	1.91 µM (inactive)	12.2 µM (inactive)	8.75 µM (inactive)	8.2 µM (inactive)	26.6 µM (inactive)	13.1 µM (inactive)	–
C=C(C)[C@@H]1CC[C@]2(C(=O)O)CC[C@]3(C)[C@H](CCC4[C@@]5(C)CC[C@H](C(=O)/C=C/c6ccc(O)c(O)c6)C(C)(C)[C@@H]5CC[C@]43C)[C@@H]12 (some centres not stated)	2.94 µM (inactive)	4.32 µM (inactive)	2.81 µM (inactive)	5.15 µM (inactive)	3.39 µM (inactive)	3.58 µM (inactive)	3.77 µM (inactive)	2.72 µM (inactive)	3.31	5.14 µM (inactive)	2.17 µM (inactive)	12 µM (inactive)	2.77 µM (inactive)	1.88 µM (inactive)	4.46 µM (inactive)	–	4.42 µM (inactive)	–	6 µM (inactive)
CCC[C@@H](O)C[C@@H]1CCC[C@H](C[C@@H](O)CC)N1C	> 100 µM (inactive)	> 100 µM (inactive)	–	> 100 µM (inactive)	> 100 µM (inactive)	> 100 µM (inactive)	> 100 µM (inactive)	> 100 µM (inactive)	> 100	> 100 µM (inactive)	> 100 µM (inactive)	76.4 µM (inactive)	> 100 µM (inactive)	> 100 µM (inactive)	> 100 µM (inactive)	> 100 µM (inactive)	> 100 µM (inactive)	–	–
COC(=O)C(Cc1ccccc1)NP(=O)(O)OCC1OC(n2ccc(N)nc2=O)C(O)C1O (configuration not stated)	76 µM (inactive)	> 100 µM (inactive)	> 100 µM (inactive)	> 100 µM (inactive)	> 100 µM (inactive)	> 100 µM (inactive)	> 100 µM (inactive)	> 100 µM (inactive)	> 100	> 100 µM (inactive)	> 100 µM (inactive)	> 100 µM (inactive)	> 100 µM (inactive)	> 100 µM (inactive)	> 100 µM (inactive)	> 100 µM (inactive)	> 100 µM (inactive)	> 100 µM (inactive)	–
O=C1CNNC(CSc2nc3ccc(I)cc3c(=O)n2Cc2ccccc2)=N1	31.9 µM (inactive)	24.5 µM (inactive)	30.9 µM (inactive)	22.2 µM (inactive)	36.1 µM (inactive)	1.24 µM (inactive)	15.8 µM (inactive)	16.3 µM (inactive)	32	15.5 µM (inactive)	2.23 µM (inactive)	27.5 µM (inactive)	20.8 µM (inactive)	27 µM (inactive)	26.5 µM (inactive)	42.4 µM (inactive)	33.3 µM (inactive)	23.9 µM (inactive)	–
c1ccc2c(c1)CCc1c-2n(CCN2CCCCC2)c2ccccc12	13.9 µM (inactive)	11.8 µM (inactive)	15.6 µM (inactive)	39.4 µM (inactive)	13.5 µM (inactive)	11.4 µM (inactive)	14.8 µM (inactive)	18.7 µM (inactive)	10.6	15.5 µM (inactive)	–	17.9 µM (inactive)	12.5 µM (inactive)	13.1 µM (inactive)	17.7 µM (inactive)	20.8 µM (inactive)	23.7 µM (inactive)	24.7 µM (inactive)	–
N#C[C@H](C(=O)c1ccccc1F)c1nc2ccccc2[nH]1	> 100 µM (inactive)	> 100 µM (inactive)	> 100 µM (inactive)	> 100 µM (inactive)	> 100 µM (inactive)	93.1 µM (inactive)	> 100 µM (inactive)	> 100 µM (inactive)	> 100	> 100 µM (inactive)	–	> 100 µM (inactive)	> 100 µM (inactive)	> 100 µM (inactive)	> 100 µM (inactive)	> 100 µM (inactive)	> 100 µM (inactive)	–	> 100 µM (inactive)
